In patent publication US8362256B2, “Salts of N-[4-(1-cyanocyclopentyl)phenyl]-2-(4-pyridylmethyl)amino-3-pyridinecarboxamide” (Jiangsu Hengrui Medicine Co. Ltd., priority 2008, dated 2013):
Where “and” joins values, the source holds several entries; their conditions need not be identical. Equal entries are not always repeated. Where two headings read alike, the source gives them in different places.

What was measured:
in vivo = settings: rat, po, 1 mmol/kg
Excerpt: Male Sprague-Dawley (SD) rats (weight: about 250 g, experimental animal certification of fitness: 0006473) were purchased from Shanghai Slaccas experimental animals limited liability company (certification number: SCXK (Hu) 2003-0003). The relevant qualifications and state of health of the SD rats were checked first, and the eligible ones were placed into the clean grade chambers of rats in Shanghai institute of Materia Medica.
(§1) I. Analysis Condition of LC/MS/MS
(§2) Analysis Condition of Liquid Chromatography
Chromatographic column: Agilent Zorbax SB-C18 column (50 mm×2.1 mm ID);
(§3) Column temperature: 25° C.;
Mobile phase: A: H2O—CH3CN (2:98, v/v), B: H2O—CH3CN (10:90, v/v)
(§4) A: 25%+B: 75%, constant gradient elution;
(§5) Analysis time: 3 minutes.
The light circle was switched to 12/12 hour day/night in the clean grade chambers of rats. Humidity and temperature were 40-60% and 20-24° C., respectively. Every 4 rats were raised in a 36×24×19 cm^3 stainless rat cage. The rats took water freely and were fed special rat food regularly once daily. Only after one week adaption, the rats were used to conduct pharmacokinetics studies. 12 Sprague-Dawley rats were divided into 4 groups, 3 for each group.
The blood samples were collected 0 hour before the administration and 0.083, 0.25, 0.5, 1.0, 2, 4, 6, and 8 hours after the administration. The blood samples were collected at 250˜300 μL at each time point from posterior venous sinus of the eye after respiration anaesthesia with ether (the degree of anaesthesia was highly controlled). The blood was collected into test tubes containing heparin, and then was centrifuged to produce plasma. The obtained plasma was divided into 2 parts (50 μL for each part) and stored at −70° C. until analysis. […] After experiments, euthanasia was performed with CO2 gas.
Pharmacokinetics parameters of animal experiment of each group were calculated using InnaPhase Kinetica™ software (America).

[1] = Stability in different conditions, content by HPLC; assay type: physicochemical; settings: for content after 6 Months Under Light / content after 6 Months at 60° C. / content after 6 Months at Room Temperature: HPLC, initial purity 99.6%
Solubility = assay type: physicochemical
[2] = tested on: kinases Ret, VEGFR-1, PDGFR-β, c-kit, cSRC; settings: cited from earlier work
VEGFR-2 = VEGFR-2 (Homo sapiens, UniProt P35968); settings: enzyme level tests in different laboratories; cited from earlier work
Sequence of VEGFR-2 (P35968 20-1356, species assumed): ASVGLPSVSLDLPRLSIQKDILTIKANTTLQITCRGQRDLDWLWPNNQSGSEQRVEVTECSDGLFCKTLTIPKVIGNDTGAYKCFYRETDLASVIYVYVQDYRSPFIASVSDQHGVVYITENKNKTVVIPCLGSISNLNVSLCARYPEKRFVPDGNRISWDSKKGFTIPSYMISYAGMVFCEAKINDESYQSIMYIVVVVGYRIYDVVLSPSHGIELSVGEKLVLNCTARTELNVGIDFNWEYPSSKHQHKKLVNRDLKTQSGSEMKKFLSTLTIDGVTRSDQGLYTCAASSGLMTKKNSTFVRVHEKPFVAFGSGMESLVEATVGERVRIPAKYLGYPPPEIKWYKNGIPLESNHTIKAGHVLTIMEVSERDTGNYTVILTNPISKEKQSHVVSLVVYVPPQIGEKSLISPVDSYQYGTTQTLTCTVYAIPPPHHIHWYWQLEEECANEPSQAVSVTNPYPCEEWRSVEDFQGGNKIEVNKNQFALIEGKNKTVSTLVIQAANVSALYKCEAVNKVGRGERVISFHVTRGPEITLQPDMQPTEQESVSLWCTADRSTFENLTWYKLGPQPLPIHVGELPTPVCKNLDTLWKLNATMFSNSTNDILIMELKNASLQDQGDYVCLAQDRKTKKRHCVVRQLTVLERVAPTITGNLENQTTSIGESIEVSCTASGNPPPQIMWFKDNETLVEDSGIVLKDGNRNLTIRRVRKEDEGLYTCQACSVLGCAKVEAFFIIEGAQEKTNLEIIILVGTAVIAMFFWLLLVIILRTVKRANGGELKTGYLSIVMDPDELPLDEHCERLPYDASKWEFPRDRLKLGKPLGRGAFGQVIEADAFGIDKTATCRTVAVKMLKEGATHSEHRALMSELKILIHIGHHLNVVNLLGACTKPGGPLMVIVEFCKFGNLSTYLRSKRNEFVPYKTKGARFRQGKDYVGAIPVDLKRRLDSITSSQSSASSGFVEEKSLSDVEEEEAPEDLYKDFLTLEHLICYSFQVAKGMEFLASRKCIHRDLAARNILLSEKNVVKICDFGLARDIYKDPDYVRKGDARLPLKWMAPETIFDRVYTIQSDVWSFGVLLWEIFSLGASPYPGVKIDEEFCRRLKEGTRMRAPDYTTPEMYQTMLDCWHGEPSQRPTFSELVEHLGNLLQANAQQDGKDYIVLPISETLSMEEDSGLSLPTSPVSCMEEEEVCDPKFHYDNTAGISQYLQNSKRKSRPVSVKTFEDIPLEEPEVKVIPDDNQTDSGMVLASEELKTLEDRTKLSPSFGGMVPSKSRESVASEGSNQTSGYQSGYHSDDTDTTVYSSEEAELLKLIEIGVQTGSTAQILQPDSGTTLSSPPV

[3] = Bioavailability of compound A by oral administration (Example 4); assay type: in vivo, Sprague-Dawley (SD) rats; settings: SD rats
Procedure: as §1, §2, §3, §4, §5
Only after one week adaption, the rats could be used to conduct pharmacokinetics animal experiment.
The blood samples were collected into test tubes containing heparin added in advance, and then centrifuged to produce plasma. […] Euthanasia was performed on used rats with CO2 gas.

[4] = tested on: non-small cell lung cancer A549; settings: cited from earlier work
colon cancer Ls174t = settings: cited from earlier work
[5] = 75 mg/kg; initial tumor volume 25-100 mm3; 28 days or more; cited from earlier work
[6] = tested on: human colon cancer Ls174t; test: Efficacy on human colon cancer Ls174t transplanted in nude mice; settings: for Weight after Removing Tumor, d0 / TV x ± SD, d0: d0 baseline; for RTV x ± SD / T/C / TV x ± SD, dn: dn 14 days; for Weight after Removing Tumor, dn: dn 14 days after first administration
Procedure: BALB/cA-nude mice, ♀, 5-6 weeks-old, available from Shanghai Slaccas experimental animals limited liability company. […] Rearing environment: SPF grade.
(§6) After one week adaption, the experimental animals were subcutaneously inoculated with human colon cancer Ls174t tumor tissues. When the tumors grew to 100-300 mm^3, the animals were randomly divided into several groups in day 0 (d0). […] The volumes of tumors and the weights of mice were measured 2-3 times every week, the data of which were recorded. The equation for the calculation of volume of tumors (V) is: V=½×a×b^2 wherein a and b represent length and width, respectively.

c-Src = c-Src (Homo sapiens, UniProt P12931); test: ELISA tyrosine kinase inhibition; assay type: biochemical; settings: concentration increased to 10^4 nM
Sequence of c-Src (P12931 whole entry, species assumed): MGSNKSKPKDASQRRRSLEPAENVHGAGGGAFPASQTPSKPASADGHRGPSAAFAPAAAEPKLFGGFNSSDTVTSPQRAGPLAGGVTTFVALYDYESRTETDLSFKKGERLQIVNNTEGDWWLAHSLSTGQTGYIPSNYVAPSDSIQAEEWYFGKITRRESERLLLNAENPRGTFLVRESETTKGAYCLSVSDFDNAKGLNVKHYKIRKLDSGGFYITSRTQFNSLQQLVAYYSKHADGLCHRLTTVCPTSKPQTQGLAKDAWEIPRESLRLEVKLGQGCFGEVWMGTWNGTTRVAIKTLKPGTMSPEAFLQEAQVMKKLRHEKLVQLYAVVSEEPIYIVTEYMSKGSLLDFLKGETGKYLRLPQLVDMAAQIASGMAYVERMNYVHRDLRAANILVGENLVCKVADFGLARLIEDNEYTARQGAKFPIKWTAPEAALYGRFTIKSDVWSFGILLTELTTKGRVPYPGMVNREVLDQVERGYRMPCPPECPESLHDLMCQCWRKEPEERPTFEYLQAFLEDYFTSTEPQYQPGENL
Procedure: Phosphorylation of substrate was determined with monoclonal antibody of anti-phosphorylation tyrosine (PY99). Goat anti-mouse IgG marked with HRP was then added, and the degree of phosphorylation of substrate was determined with OPD coloration. At the same time, the control group without tyrosine kinase and control wells of corresponding DMSO concentration were set up. 2 M of H2SO4 was added in 50 μl/well to terminate the reaction. Data was read with adjustable wavelength micro plate enzyme-labeling instrument VERSAmax (Sunnyvale, Calif., U.S.A.), followed by visualization reaction, OD490 nm value was then observed.
Relative inhibition rate of drugs on tyrosine kinase protein was determined.

human colon cancer HT-29 = test: Efficacy on human colon cancer HT-29 transplanted in nude mice
Procedure: BALB/cA-nude mice, ♀, 5-6 weeks-old, purchased from Shanghai Slaccas experimental animals limited liability company. […] Rearing environment: SPF grade.
as §6, with “HT-29” for “Ls174t”, “groups.” for “groups in day 0 (d0).”, “Volume” for “The volumes”, “weight” for “the weights”, “a,” for “a and”

[7] = oral 20 mg/kg, individual rats, 20 mg/kg
[8] = 50 mg/kg p.o. once daily d0-d13
[9] = 100 mg/kg p.o. once daily d0-d13
[10] = 200 mg/kg p.o. once daily d0-d13
[11] = 200 mg/kg p.o. once daily d0-d20, dn 21 days

## N#CC1(c2ccc(NC(=O)c3cccnc3NCc3ccncc3)cc2)CCCC1.O=C(O)/C=C\C(=O)O [Maleate of compound A]
In vivo
  AUC0→8 h Mol dose: 11697 ± 8807 ng·h/mL
[1]
  content after 6 Months Under Light: 94.2%
  content after 6 Months at 60° C.: 93.5%
  content after 6 Months at Room Temperature: 96.4%
Solubility
  Solubility in water: Insoluble

## Cl.N#CC1(c2ccc(NC(=O)c3cccnc3NCc3ccncc3)cc2)CCCC1 [Hydrochloride of compound A]
In vivo
  AUC0→8 h Mol dose: 17653 ± 3232 ng·h/mL
[1]
  stability (conclusion of stability experiments): most satisfying
  content after 6 Months Under Light: 97.6%
  content after 6 Months at 60° C.: 94.7%
  content after 6 Months at Room Temperature: 98.2%
Solubility
  Solubility in water: very slightly

## N#CC1(c2ccc(NC(=O)c3cccnc3NCc3ccncc3)cc2)CCCC1 [Compound A, N-[4-(1-cyanocyclopentyl)phenyl]-2-(4-pyridylmethyl)amino-3-pyridine carboxamide]
[2]
  inhibition activity on kinases Ret, VEGFR-1, PDGFR-β, c-kit, cSRC: certain selective inhibition activity
VEGFR-2
  IC50: ~1 nM
[3]; oral 20 mg/kg, 3 rats
  CL, Mean ± SD: 1520 ± 393 mL/min/kg
  Kel, Mean ± SD: 0.426 ± 0.169 h⁻¹
  Vd, Mean ± SD: 300 ± 69.4 L/kg
[3]; [7]
  AUC0→8h: 295 ng·h/mL and 211 ng·h/mL
  CL: 1920 mL/min/kg and 1120 mL/min/kg and 1540 mL/min/kg
  Cmax: 68.9 ng/mL and 79.2 ng/mL
  Kel: 0.325 h⁻¹ and 0.622 h⁻¹ and 0.332 h⁻¹
  MRT: 3.38 h and 3.32 h
  T1/2: 1.12 h and 2.09 h
  Tmax: 1 h
  Vd: 366 L/kg and 228 L/kg and 308 L/kg
[3]; male, Sprague-Dawley, rat, plasma, po, 20 mg/kg, 3 rats, read-out: AUC0→8h, Mean ± SD
  AUC(0-t): 226 ± 63 ng·h/mL
[3]; male, Sprague-Dawley, rat, plasma, po, 20 mg/kg, 3 rats, read-out: Cmax, Mean ± SD
  Cmax: 69.6 ± 9.2 ng/mL
[3]; male, Sprague-Dawley, rat, plasma, po, 20 mg/kg, 3 rats, read-out: MRT, Mean ± SD
  MRT: 3.3 ± 0.09 h
[3]; male, Sprague-Dawley, rat, plasma, po, 20 mg/kg, 3 rats, read-out: T1/2, Mean ± SD (converted)
  half-life: 1.78 ± 0.57 h
[3]; male, Sprague-Dawley, rat, plasma, po, 20 mg/kg, 3 rats, read-out: Tmax, Mean ± SD
  Tmax: 1.33 ± 0.29 h
[3]; male, Sprague-Dawley, rat, plasma, po, 20 mg/kg, individual rats, read-out: AUC0→8h
  AUC(0-t): 172 ng·h/mL
[3]; male, Sprague-Dawley, rat, plasma, po, 20 mg/kg, individual rats, read-out: Cmax
  Cmax: 60.8 ng/mL
[3]; male, Sprague-Dawley, rat, plasma, po, 20 mg/kg, individual rats, read-out: MRT
  MRT: 3.2 h
[3]; male, Sprague-Dawley, rat, plasma, po, 20 mg/kg, individual rats, read-out: T1/2 (converted)
  half-life: 2.13 h
[3]; male, Sprague-Dawley, rat, plasma, po, 20 mg/kg, individual rats, read-out: Tmax
  Tmax: 1.5 h
[4]; compared with PTK787
  efficacy on non-small cell lung cancer A549 transplanted in nude mice: distinctly better than PTK787
[4]; compared with ZD6474 at a customary dose
  maximum efficacy on A549: equivalent to ZD6474
[1]
  content after 6 Months Under Light: 95.2%
  content after 6 Months at 60° C.: 92.2%
  content after 6 Months at Room Temperature: 95.7%
Solubility
  Solubility in water: Insoluble
Colon cancer Ls174t; combination with oxaliplatin
  efficacy in combination with oxaliplatin: improved
Colon cancer Ls174t; mouse, in vivo
  toxicity in combination with oxaliplatin: not increased
Colon cancer Ls174t; used alone, compared with PTK787
  efficacy on colon cancer Ls174t transplanted in nude mice: distinctly better than PTK787

## N#CC1(c2ccc(NC(=O)c3cccnc3NCc3ccncc3)cc2)CCCC1.O=C(O)CCC(=O)O [Succinate of compound A]
[1]
  content after 6 Months Under Light: 94.2%
  content after 6 Months at 60° C.: 93.8%
  content after 6 Months at Room Temperature: 96.2%

## Clc1ccc(Nc2nnc(Cc3ccncc3)c3ccccc23)cc1 [PTK787, reference compound]
[5]
  best T/C %: 40%
[6]; [8]
  Weight after Removing Tumor, d0: 19.5 g
  RTV x ± SD: 9.4 ± 5.9
  T/C: 76.4%
  TV x ± SD, dn: 1425 ± 613
  Weight after Removing Tumor, dn: 17.6 g
[6]; 50 mg/kg p.o.
  TV x ± SD, d0: 171 ± 39
[6]; [9]
  Weight after Removing Tumor, d0: 19.3 g
  RTV x ± SD: 8.8 ± 3.5
  T/C: 71.5%
  TV x ± SD, dn: 1538 ± 402
  Weight after Removing Tumor, dn: 17.3 g
[6]; 100 mg/kg p.o.
  TV x ± SD, d0: 175 ± 43
[6]; [10]
  Weight after Removing Tumor, d0: 18.8 g
  RTV x ± SD: 7.4 ± 2.0
  TV x ± SD, dn: 1076 ± 198
  Weight after Removing Tumor, dn: 17.1 g
[6]; 200 mg/kg p.o.
  TV x ± SD, d0: 150 ± 25
[6]; 400 mg/kg
  efficacy at 400 mg/kg: did not increase significantly
[6]; Mus musculus, LS174T, read-out: ED50 on colon cancer Ls174t
  ED50: 459 mg/kg
[6]; mouse, in vivo
  tolerance at 400 mg/kg: could be tolerated by mice
c-Src
  inhibition on c-Src: no inhibition
Human colon cancer HT-29; 200 mg/kg p.o. once daily d0-d20, d0 baseline
  Weight after Removing Tumor, d0: 15.9 g
Human colon cancer HT-29; [11]
  RTV x ± SD: 4.9 ± 1.36
  TV x ± SD, dn: 1185 ± 143
Human colon cancer HT-29; 200 mg/kg p.o. once daily d0-d20, dn 21 days after first administration
  Weight after Removing Tumor, dn: 13.9 g
Human colon cancer HT-29; 200 mg/kg p.o., d0 baseline
  TV x ± SD, d0: 252 ± 43
Human colon cancer HT-29; mouse, in vivo, po
  tolerance: well tolerated

## N#CC1(c2ccc(NC(=O)c3cccnc3NCc3ccncc3)cc2)CCCC1.O=P(O)(O)O [Phosphate of compound A]
In vivo
  AUC0→8 h Mol dose: 9074 ± 6292 ng·h/mL
[1]
  content after 6 Months Under Light: 97.1%
  content after 6 Months at 60° C.: 94.2%
  content after 6 Months at Room Temperature: 97.3%
Solubility
  Solubility in water: Insoluble
